Some test systems named below: BT-549 breast; HL-60(TB) leukemia; IGROV1 ovarian; OVCAR-3 ovarian; OVCAR-8 ovarian; SNB-19 CNS; SR leukemia; U251 CNS.
Common to all, as to experiment: NCI tumour cell line growth inhibition, 48 h

“And” between values parts separate entries of the source, which are not always exact repeats. Equal values may be shown once.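 Compound exposure: 48 hours, 5 concentrations, 96-well plates. Abbreviation: GI50, concentration required for 50% inhibition of growth. TGI marks complete inhibition of growth.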

The text below walks through data of PubChem BioAssay (NCI).

For `COc1ccc2c(c1)C=C1CSCC3=Cc4cc(OC)ccc4OC13O2`, the GI50 was 0.816 µM in the test with BT-549 breast; 0.27 µM in the test on HL-60(TB) leukemia; 0.608 µM with IGROV1 ovarian; 0.295 µM in the test with OVCAR-3 ovarian; 0.522 µM in the test on OVCAR-8 ovarian; 0.552 µM in the test with SNB-19 CNS. Also, the GI50 was 0.164 µM with SR leukemia and 0.427 µM with U251 CNS. Also, the TGI is above 100 µM in the test with BT-549 breast; 0.801 µM with HL-60(TB) leukemia; above 100 µM in the test with IGROV1 ovarian; 0.884 µM in the test with OVCAR-3 ovarian; above 100 µM in the test on OVCAR-8 ovarian; above 100 µM with SNB-19 CNS. Also, the TGI with SR leukemia and in the test with U251 CNS was above 100 µM throughout.

Regarding `NCCSC(C[N+](=O)[O-])c1ccccc1Cl` (stereo unspecified), the GI50 was 2.03 µM in the test on BT-549 breast; 3.38 µM with HL-60(TB) leukemia; 2.89 µM in the test with IGROV1 ovarian; 1.88 µM in the test with OVCAR-3 ovarian; 6.43 µM in the test with OVCAR-8 ovarian; 3.38 µM in the test with SNB-19 CNS. Moreover, the GI50 in the test with SR leukemia is 3.05 µM; in the test on U251 CNS, 1.85 µM. Besides, the TGI in the test on BT-549 breast was 4.26 µM; in the test on HL-60(TB) leukemia, above 23.3 µM; in the test on IGROV1 ovarian, 9.67 µM; in the test with OVCAR-3 ovarian, 3.5 µM; in the test with OVCAR-8 ovarian, 23.8 µM; with SNB-19 CNS, 11.5 µM. Besides, the TGI in the test with SR leukemia was above 100 µM; in the test with U251 CNS, 3.81 µM.

As to `COC1OC(C(C)O)C2OC(C)(C)OC12` (stereo unspecified), the TGI in the test on BT-549 breast, in the test on HL-60(TB) leukemia, in the test on IGROV1 ovarian, with OVCAR-3 ovarian, in the test on OVCAR-8 ovarian and in the test with SNB-19 CNS was above 100 µM throughout. Moreover, the TGI with SR leukemia and with U251 CNS was above 100 µM in each case.

On to `CC(C)=CCc1cc(C2COc3cc4c(c(O)c3C2=O)C=CC(C)(C)O4)c(O)cc1O` (stereo unspecified), for which the TGI came out at 33.3 µM with BT-549 breast; 31.1 µM in the test with HL-60(TB) leukemia; 36.4 µM in the test on IGROV1 ovarian; 27.3 µM in the test with OVCAR-3 ovarian; 51.2 µM with OVCAR-8 ovarian; 40.7 µM with SNB-19 CNS. Further, the TGI was determined as 24.1 µM with SR leukemia and 35.7 µM with U251 CNS.

Consider `Nc1nc(Cl)nc2c1ncn2[C@@H]1O[C@H](COS(N)(=O)=O)[C@@H](O)[C@H]1O`, for which the GI50 with BT-549 breast is 0.009 µM and 0.0243 µM; with IGROV1 ovarian, 0.0304 µM and 0.0308 µM; with OVCAR-3 ovarian, 0.0282 µM; in the test with OVCAR-8 ovarian, 0.0178 µM and 0.0171 µM; with SNB-19 CNS it was 0.00365 µM; in the test on SR leukemia it was 0.00307 µM. Moreover, the GI50 with U251 CNS was 0.0222 µM and 0.0231 µM. The TGI is 0.0646 µM and 0.0713 µM with BT-549 breast; 0.0224 µM in the test on HL-60(TB) leukemia; 0.0915 µM and 0.0964 µM in the test on IGROV1 ovarian; 0.0864 µM and 0.0714 µM in the test with OVCAR-3 ovarian; 0.0562 µM and 0.0453 µM in the test with OVCAR-8 ovarian; 0.0323 µM and 0.0465 µM in the test on SNB-19 CNS. Moreover, the TGI was 0.0487 µM and 0.0418 µM in the test on SR leukemia; 0.0658 µM and 0.0663 µM in the test on U251 CNS.

Consider `COc1ccc(OC)c(/C=N/N=C2\C(=O)Nc3c(Cl)cc(Cl)cc32)c1`, for which the TGI with BT-549 breast was 72.5 µM; with HL-60(TB) leukemia, above 100 µM; in the test on IGROV1 ovarian it was above 100 µM; in the test on OVCAR-3 ovarian, above 100 µM; with OVCAR-8 ovarian, above 100 µM; with SNB-19 CNS it was above 100 µM. For the same molecule, the TGI in the test on SR leukemia and in the test with U251 CNS was above 100 µM each time.

Take `COc1cc2c(cc1OCCCCCn1c3ccccc3c3ccccc31)N=C[C@@H]1CCCN1C2=O`: the GI50 in the test on BT-549 breast was 2.03 µM; in the test with HL-60(TB) leukemia, 1.72 µM; with IGROV1 ovarian it was 2.08 µM; with OVCAR-3 ovarian, 1.88 µM; in the test with OVCAR-8 ovarian, 2.56 µM; in the test on SNB-19 CNS it was 2.05 µM. For the same molecule, the GI50 in the test on SR leukemia was 15.4 µM; in the test on U251 CNS it was 1.59 µM. Also, the TGI with BT-549 breast worked out at 4.31 µM; in the test on HL-60(TB) leukemia, 4.38 µM; in the test on IGROV1 ovarian, 4.69 µM; in the test with OVCAR-3 ovarian, 3.57 µM; in the test on OVCAR-8 ovarian, 7.17 µM; in the test on SNB-19 CNS it was 4.04 µM. Besides, the TGI in the test with SR leukemia was above 100 µM; in the test on U251 CNS it was 3.19 µM.

As for `CCc1nc(N)nc(N)c1C#CC(C)c1cc(-c2ccnc(C)c2)c2oc(C)nc2c1` (stereo unspecified), the GI50 is 1.03 µM in the test with BT-549 breast; below 0.01 µM in the test with HL-60(TB) leukemia; below 0.01 µM with IGROV1 ovarian; 0.0893 µM with OVCAR-3 ovarian; below 0.01 µM in the test with OVCAR-8 ovarian; below 0.0114 µM with SNB-19 CNS. The GI50 was below 0.0342 µM with SR leukemia and below 0.01 µM with U251 CNS. The TGI with BT-549 breast is 8.31 µM; with HL-60(TB) leukemia, 2.22 µM; in the test with IGROV1 ovarian, 6.23 µM; with OVCAR-3 ovarian, 15 µM; with OVCAR-8 ovarian, 47.1 µM; in the test with SNB-19 CNS, 12.1 µM. Moreover, the TGI was above 53.9 µM in the test with SR leukemia and 11.9 µM with U251 CNS.

Regarding `c1ccc(/C(=N\Nc2ccc3ccccc3n2)c2ccccn2)cc1`, the GI50 is 0.116 µM with BT-549 breast; 0.235 µM in the test on HL-60(TB) leukemia; 0.433 µM in the test on IGROV1 ovarian; 0.291 µM in the test on OVCAR-3 ovarian; 0.456 µM with OVCAR-8 ovarian; 1.29 µM in the test on SNB-19 CNS. Also, the GI50 in the test with SR leukemia was 0.246 µM; with U251 CNS, 0.592 µM. Further, the TGI in the test on BT-549 breast is 1.72 µM; with HL-60(TB) leukemia it was 0.775 µM; in the test on IGROV1 ovarian it was 3.23 µM; in the test on OVCAR-3 ovarian, 2.49 µM; in the test on OVCAR-8 ovarian, 17.4 µM; in the test with SNB-19 CNS, above 59.3 µM. Moreover, the figures for the TGI with SR leukemia and with U251 CNS were 1.14 µM and 13 µM, respectively.

`C=C1C(=O)O[C@H]2[C@H]1CC/C(CNC(=O)/C=C/c1ccc(Cl)cc1Cl)=C\CC[C@@]1(C)O[C@@H]21`: the GI50 in the test on BT-549 breast is 0.975 µM; in the test on HL-60(TB) leukemia, 0.0256 µM; in the test on IGROV1 ovarian, 1.63 µM; with OVCAR-3 ovarian it was 0.434 µM; in the test on OVCAR-8 ovarian, 1.37 µM; with SNB-19 CNS, 3.24 µM. The GI50 in the test with SR leukemia was 0.232 µM; with U251 CNS it was 1.65 µM. In addition, the TGI stood at 2.59 µM in the test on BT-549 breast; 0.542 µM with HL-60(TB) leukemia; 3.41 µM with IGROV1 ovarian; 1.57 µM in the test on OVCAR-3 ovarian; 3.44 µM in the test with OVCAR-8 ovarian; 14.2 µM in the test on SNB-19 CNS. Further, the TGI came to 1.89 µM with SR leukemia and 3.14 µM with U251 CNS.

For `COc1ccc2c(c1OC)C(=O)O[C@@H]2[C@H]1c2c(c(Br)c3c(c2OC)OCO3)CCN1C`, the GI50 in the test with BT-549 breast was above 100 µM; with HL-60(TB) leukemia it was 1.82 µM; in the test with IGROV1 ovarian it was 7.77 µM; with OVCAR-3 ovarian it was 10.6 µM; with OVCAR-8 ovarian, 32.4 µM; with SNB-19 CNS, 75.9 µM. The figures for the GI50 in the test with SR leukemia and in the test on U251 CNS were 0.918 µM and 8.8 µM, respectively. Moreover, the TGI in the test on BT-549 breast is above 100 µM; in the test on HL-60(TB) leukemia, above 100 µM; in the test with IGROV1 ovarian it was above 100 µM; with OVCAR-3 ovarian it was 40.8 µM; with OVCAR-8 ovarian it was above 100 µM; in the test on SNB-19 CNS it was above 100 µM. Moreover, the TGI in the test on SR leukemia and in the test with U251 CNS was above 100 µM in each case.
